The values below are quoted from earlier work in US20160338951A1 (Gavis Pharmaceuticals, priority 2015, published 2016).

The conditions of the series: olopatadine by itself, water pH about 7.0, room temperature.

Take `CN(C)CC/C=C1/c2ccccc2COc2ccc(CC(=O)O)cc21` [olopatadine, 11-[(Z)-3(Dimethylamino)propylidene]-6-11dihydrodibenz [b,e] oxepin-2-acetic acid]: the “soluble in water up to a concentration” value is “about 0.18 w/v %”.
